Measurements as given in PubChem BioAssay (NCI).
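Interpolation was linear, between the two tested concentrations surrounding the appropriate level; five concentrations were tested over 48 hours in 96-well plates. GI50 = concentration required for 50% inhibition of growth. At the TGI there is no net growth.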

Experiments:
Assay in all cases: growth of human tumour cells (NCI), 48 h
A498 renal = tested on: A498 renal
COLO 205 colon = tested on: COLO 205 colon
HT29 colon = tested on: HT29 colon
IGROV1 ovarian = tested on: IGROV1 ovarian
SK-MEL-5 melanoma = tested on: SK-MEL-5 melanoma
SK-OV-3 ovarian = tested on: SK-OV-3 ovarian
SN12C renal = tested on: SN12C renal
T-47D breast = tested on: T-47D breast

SMILES: COc1cc(NC(N)=NCCC(C)(C)Oc2ccc(C(F)(F)F)cc2)ncc1C#N
- GI50 (A498 renal): 1.8 µM
- TGI (A498 renal): 3.23 µM
- GI50 (COLO 205 colon): 1.58 µM
- TGI (COLO 205 colon): 3.06 µM
- GI50 (HT29 colon): 1.64 µM
- TGI (HT29 colon): 3.03 µM
- GI50 (IGROV1 ovarian): 1.8 µM
- TGI (IGROV1 ovarian): 3.48 µM
- GI50 (SK-MEL-5 melanoma): 1.58 µM
- TGI (SK-MEL-5 melanoma): 2.93 µM
- GI50 (SK-OV-3 ovarian): 1.84 µM
- TGI (SK-OV-3 ovarian): 3.26 µM
- GI50 (SN12C renal): 1.85 µM
- TGI (SN12C renal): 3.35 µM
- GI50 (T-47D breast): 1.56 µM
- TGI (T-47D breast): 3.29 µM

SMILES: CC(=O)O[C@H]1CC[C@@]2(C)C(=CC[C@H]3[C@@H]4CC[C@H](c5cc(C(F)(F)F)n(C(C)=O)n5)[C@@]4(C)CC[C@@H]32)C1
- TGI (A498 renal): 22.5 µM
- TGI (COLO 205 colon): 14.5 µM
- TGI (HT29 colon): 17.4 µM
- TGI (IGROV1 ovarian): 16.4 µM
- TGI (SK-MEL-5 melanoma): 15.3 µM
- TGI (SK-OV-3 ovarian): 25.4 µM
- TGI (SN12C renal): 20.8 µM
- TGI (T-47D breast): 25 µM

SMILES: CCN(Cc1cccc(F)c1)c1ccc(CO)c(Cl)c1
- GI50 (A498 renal): 0.0356 µM
- TGI (A498 renal): 0.169 µM
- GI50 (COLO 205 colon): 1.57 µM
- TGI (COLO 205 colon): 4.85 µM
- GI50 (HT29 colon): 3.42 µM
- TGI (HT29 colon): > 51.4 µM
- GI50 (IGROV1 ovarian): 0.0779 µM
- TGI (IGROV1 ovarian): 1.15 µM
- GI50 (SK-MEL-5 melanoma): 3.86 µM
- TGI (SK-MEL-5 melanoma): 20.4 µM
- GI50 (SK-OV-3 ovarian): 6.68 µM
- TGI (SK-OV-3 ovarian): 36.3 µM
- GI50 (SN12C renal): 14.6 µM
- TGI (SN12C renal): > 50.5 µM
- GI50 (T-47D breast): 0.148 µM
- TGI (T-47D breast): 0.662 µM

SMILES: Cc1nn(-c2nc3ccccc3[nH]2)c(N)c1-c1ccc(Cl)cc1
- GI50 (A498 renal): 3.02 µM
- TGI (A498 renal): > 100 µM
- GI50 (COLO 205 colon): 4.17 µM
- TGI (COLO 205 colon): > 100 µM
- GI50 (HT29 colon): 4.35 µM
- TGI (HT29 colon): 67.8 µM
- GI50 (IGROV1 ovarian): 7.75 µM
- TGI (IGROV1 ovarian): > 100 µM
- GI50 (SK-MEL-5 melanoma): 4.08 µM
- TGI (SK-MEL-5 melanoma): > 100 µM
- GI50 (SK-OV-3 ovarian): 7.4 µM
- TGI (SK-OV-3 ovarian): > 100 µM
- GI50 (SN12C renal): 5.52 µM
- TGI (SN12C renal): > 100 µM
- GI50 (T-47D breast): 3.42 µM
- TGI (T-47D breast): > 100 µM

SMILES: Cc1ccc(S(=O)(=O)NC(=O)C2C(=O)CC3(CCCCC3)CC2=O)cc1
- TGI (A498 renal): 80.6 µM
- TGI (COLO 205 colon): 32.2 µM
- TGI (HT29 colon): 92.5 µM
- TGI (IGROV1 ovarian): 71.1 µM
- TGI (SK-MEL-5 melanoma): 67 µM
- TGI (SK-OV-3 ovarian): > 100 µM
- TGI (SN12C renal): 86.4 µM
- TGI (T-47D breast): > 100 µM

SMILES: COc1ccc(S(=O)(=O)N2CC(C)(C)CN(S(=O)(=O)c3ccc(OC)cc3)C2C(=O)NO)cc1
- GI50 (A498 renal): > 20 µM
- TGI (A498 renal): > 20 µM
- GI50 (COLO 205 colon): > 20 µM
- TGI (COLO 205 colon): > 20 µM
- GI50 (HT29 colon): > 20 µM
- TGI (HT29 colon): > 20 µM
- GI50 (IGROV1 ovarian): > 20 µM
- TGI (IGROV1 ovarian): > 20 µM
- TGI (SK-MEL-5 melanoma): > 7.63 µM
- GI50 (SK-OV-3 ovarian): > 20 µM
- TGI (SK-OV-3 ovarian): > 20 µM
- GI50 (SN12C renal): > 20 µM
- TGI (SN12C renal): > 20 µM
- GI50 (T-47D breast): > 20 µM
- TGI (T-47D breast): > 20 µM

SMILES: C#CCOc1cccc(-c2ncnc3cc(NC(=O)CCl)ccc23)c1
- GI50 (A498 renal): 3.83 µM
- TGI (A498 renal): 15.9 µM
- GI50 (COLO 205 colon): 0.0976 µM
- TGI (COLO 205 colon): 2.77 µM
- GI50 (HT29 colon): 0.0502 µM
- TGI (HT29 colon): 1.49 µM
- GI50 (IGROV1 ovarian): 0.0612 µM
- TGI (IGROV1 ovarian): 1.92 µM
- GI50 (SK-MEL-5 melanoma): 0.684 µM
- TGI (SK-MEL-5 melanoma): 2.19 µM
- GI50 (SK-OV-3 ovarian): 2.22 µM
- TGI (SK-OV-3 ovarian): 7.38 µM
- GI50 (SN12C renal): 0.115 µM
- TGI (SN12C renal): 1.41 µM
- GI50 (T-47D breast): 1.69 µM
- TGI (T-47D breast): 5.02 µM

SMILES: OCc1ccc(-c2ccc(-c3ccc(CO)o3)[se]2)o1
- GI50 (A498 renal): 0.17 µM
- TGI (A498 renal): 0.375 µM
- GI50 (COLO 205 colon): 60.2 µM
- TGI (COLO 205 colon): > 100 µM
- GI50 (HT29 colon): > 95 µM
- TGI (HT29 colon): > 100 µM
- GI50 (IGROV1 ovarian): 9.28 µM
- TGI (IGROV1 ovarian): > 100 µM
- GI50 (SK-MEL-5 melanoma): 34.8 µM
- TGI (SK-MEL-5 melanoma): > 100 µM
- GI50 (SK-OV-3 ovarian): > 100 µM
- TGI (SK-OV-3 ovarian): > 100 µM
- GI50 (SN12C renal): > 100 µM
- TGI (SN12C renal): > 100 µM
- GI50 (T-47D breast): 15.7 µM
- TGI (T-47D breast): > 100 µM

SMILES: COC(=O)CCc1c[nH]c2ccc(N(CCCl)CCCl)cc12
- GI50 (A498 renal): 3.4 µM
- TGI (A498 renal): 18.2 µM
- GI50 (COLO 205 colon): 3.5 µM
- TGI (COLO 205 colon): 19.4 µM
- GI50 (HT29 colon): 2.3 µM
- TGI (HT29 colon): 44.7 µM
- GI50 (IGROV1 ovarian): 6.45 µM
- TGI (IGROV1 ovarian): > 57.7 µM
- GI50 (SK-MEL-5 melanoma): 2.39 µM
- TGI (SK-MEL-5 melanoma): 14.8 µM
- GI50 (SK-OV-3 ovarian): 1.93 µM
- TGI (SK-OV-3 ovarian): 33.5 µM
- GI50 (SN12C renal): 0.688 µM
- TGI (SN12C renal): 36.4 µM
- GI50 (T-47D breast): 1.16 µM
- TGI (T-47D breast): 16.4 µM

SMILES: [Cl][Hg][Cl]
- GI50 (A498 renal): 20.4 µM
- TGI (A498 renal): 34.7 µM
- GI50 (COLO 205 colon): 10.3 µM
- TGI (COLO 205 colon): 24.6 µM
- GI50 (HT29 colon): 16.1 µM
- TGI (HT29 colon): 36.3 µM
- GI50 (IGROV1 ovarian): 8.2 µM
- TGI (IGROV1 ovarian): 24.8 µM
- GI50 (SK-MEL-5 melanoma): 15.4 µM
- TGI (SK-MEL-5 melanoma): 30.5 µM
- GI50 (SK-OV-3 ovarian): 20.2 µM
- TGI (SK-OV-3 ovarian): 34.5 µM
- GI50 (SN12C renal): 16.1 µM
- TGI (SN12C renal): 29.6 µM
- GI50 (T-47D breast): 5.18 µM
- TGI (T-47D breast): 30.2 µM

SMILES: CN(C)CCCOc1ccc(-c2ccc3ncc4c(c3c2)n(C2CCOCC2)c(=O)n4C)cn1
- GI50 (A498 renal): 0.559 µM
- TGI (A498 renal): 3.64 µM
- GI50 (COLO 205 colon): 0.825 µM
- TGI (COLO 205 colon): 3.28 µM
- GI50 (HT29 colon): 1.95 µM
- TGI (HT29 colon): 13.5 µM
- GI50 (IGROV1 ovarian): 0.454 µM
- TGI (IGROV1 ovarian): 5.6 µM
- GI50 (SK-MEL-5 melanoma): 1.48 µM
- TGI (SK-MEL-5 melanoma): 7.47 µM
- GI50 (SK-OV-3 ovarian): 0.514 µM
- TGI (SK-OV-3 ovarian): 4.19 µM
- GI50 (SN12C renal): 2.12 µM
- TGI (SN12C renal): 20.9 µM
- GI50 (T-47D breast): 0.212 µM
- TGI (T-47D breast): 2.92 µM
